What follows are compounds tested against T1, NLRP3 inflammasome (Homo sapiens, UniProt Q96P20) (assay: In vitro IL-1β production test (PMA-differentiated THP-1 cells, Nigericin stimulation, AlphaLISA)). Conditions: inhibition of IL-1β production; THP-1 cells differentiated with 200 nM PMA; 0.015 mM Nigericin; 2 hours.
T1 construct: endogenous in cells; host or cells: THP-1 (human monocyte-derived), PMA-differentiated, Nigericin-stimulated
Assay type: cell-based
Experimental: Human monocyte-derived THP-1 cells were cultured for one day in 10% bovine serum-containing RPMI-1640 medium (Thermo #A10491-01) supplemented with 200 nM phorbol 12-myristate 13-acetate (PMA, Sigma #P8139) to induce differentiation.
NLRP3 inflammasome was induced by replacing the culture medium with bovine serum-free RPMI-1640 medium supplemented with 0.015 mM Nigericin (Sigma #SML1779) and the test compound of known concentrations.
After 2 hours, the culture medium supernatant was collected and the IL-1β protein concentration was measured using the AlphaLISA (registered trademark) assay (PerkinElmer #AL220C).
The IL-1β concentration without the addition of the test compound and with Nigericin stimulation was set as 0% inhibitory activity, and the IL-1β concentration without Nigericin stimulation was set as 100% inhibitory activity, and the inhibition rate (% inhibition) of the test compound at each added concentration was calculated.
The % inhibition value was subjected to sigmoid fitting using a logistic regression model to calculate the 50% inhibitory concentration (IC50 value).

T1 sequence (Q96P20 whole entry): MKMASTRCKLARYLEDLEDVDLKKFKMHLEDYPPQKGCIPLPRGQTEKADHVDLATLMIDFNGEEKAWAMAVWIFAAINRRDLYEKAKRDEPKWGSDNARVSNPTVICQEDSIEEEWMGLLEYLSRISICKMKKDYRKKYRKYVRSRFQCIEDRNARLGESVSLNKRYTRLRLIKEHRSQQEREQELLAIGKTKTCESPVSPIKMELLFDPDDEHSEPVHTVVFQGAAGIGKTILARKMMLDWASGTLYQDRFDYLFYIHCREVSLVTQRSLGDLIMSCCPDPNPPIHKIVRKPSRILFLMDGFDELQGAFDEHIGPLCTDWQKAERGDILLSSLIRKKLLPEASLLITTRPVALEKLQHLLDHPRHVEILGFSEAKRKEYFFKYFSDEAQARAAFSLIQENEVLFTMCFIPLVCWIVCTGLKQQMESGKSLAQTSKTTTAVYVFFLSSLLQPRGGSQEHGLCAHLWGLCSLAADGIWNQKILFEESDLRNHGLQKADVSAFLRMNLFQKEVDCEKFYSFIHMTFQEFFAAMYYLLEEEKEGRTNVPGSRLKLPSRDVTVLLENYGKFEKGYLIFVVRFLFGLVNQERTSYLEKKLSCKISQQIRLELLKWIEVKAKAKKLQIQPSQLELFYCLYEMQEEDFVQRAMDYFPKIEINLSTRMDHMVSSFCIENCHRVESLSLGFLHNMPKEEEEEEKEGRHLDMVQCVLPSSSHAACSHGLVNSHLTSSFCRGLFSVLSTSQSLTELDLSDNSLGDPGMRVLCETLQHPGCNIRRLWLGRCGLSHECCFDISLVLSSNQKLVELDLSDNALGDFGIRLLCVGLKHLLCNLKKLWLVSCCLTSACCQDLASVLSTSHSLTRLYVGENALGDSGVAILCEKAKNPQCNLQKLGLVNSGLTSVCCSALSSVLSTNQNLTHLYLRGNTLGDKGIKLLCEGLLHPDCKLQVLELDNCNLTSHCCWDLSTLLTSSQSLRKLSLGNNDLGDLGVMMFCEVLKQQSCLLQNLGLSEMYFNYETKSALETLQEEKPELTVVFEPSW

SMILES | IC50
Cc1cc(C(F)(F)F)cc(O)c1-c1cc2ncn([C@@H]3CCCN(C)C3)c2nn1 [Example 32, 3-methyl-2-{7-[(3R)-1-methylpiperidin-3-yl]-7H-imidazo[4,5-c]pyridazin-3-yl}-5-(trifluoromethyl)phenol] | 30.6 nM
Cc1cc(C(F)(F)F)cc(O)c1-c1cc2c(nn1)N([C@@H]1CCCN(C)C1)CCN2C [Example 35, 3-methyl-2-{5-methyl-8-[(3R)-1-methylpiperidin-3-yl]-5,6,7,8-tetrahydropyrazino[2,3-c]pyridazin-3-yl}-5-(trifluoromethyl)phenol] | 25.6 nM
Cc1cc(C(F)(F)F)cc(O)c1-c1cc2c(Cl)cn([C@H]3C[C@@](C)(O)C3)c2nn1 [Example 6, 2-{5-chloro-7-[(1s,3s)-3-hydroxy-3-methylcyclobutyl]-7H-pyrrolo[2,3-c]pyridazin-3-yl}-3-methyl-5-(trifluoromethyl)phenol] | 26 nM
Cc1cc(OC(F)F)cc(O)c1-c1cc2c(C)cn([C@H]3C[C@@](C)(O)C3)c2nn1 [Example 13, 5-(difluoromethoxy)-2-{7-[(1s,3s)-3-hydroxy-3-methylcyclobutyl]-5-methyl-7H-pyrrolo[2,3-c]pyridazin-3-yl}-3-methylphenol] | 37.6 nM
Cc1c(-c2ccc3c(c2O)CCC3)nnc2c1ccn2[C@H]1C[C@@](C)(O)C1 [Example 41, 5-{7-[(1s,3s)-3-hydroxy-3-methylcyclobutyl]-4-methyl-7H-pyrrolo[2,3-c]pyridazin-3-yl}-2,3-dihydro-1H-inden-4-ol] | 77.5 nM
CCN1CC2(O)CC(n3cc(C)c4cc(-c5c(C)cc(C(F)(F)F)cc5O)nnc43)(C1)C2 [Example 75, 3-ethyl-5-{3-[2-hydroxy-6-methyl-4-(trifluoromethyl)phenyl]-5-methyl-7H-pyrrolo[2,3-c]pyridazin-7-yl}-3-azabicyclo[3.1.1]heptan-1-ol] | 98.4 nM

Other lines, results leading:

IC50 | SMILES
9.53 nM | Cc1cc(C(F)(F)F)cc(O)c1-c1cc2c3c(n([C@H]4C[C@@](C)(O)C4)c2nn1)COC3 [Example 99, 2-{8-[(1s,3s)-3-hydroxy-3-methylcyclobutyl]-7,8-dihydro-5H-furo[3′,4′:4,5]pyrrolo[2,3-c]pyridazin-3-yl}-3-methyl-5-(trifluoromethyl)phenol]
33.6 nM | Cc1cc(C(F)(F)F)cc(O)c1-c1cc2c(C)c(C)n([C@H]3C[C@@](C)(O)C3)c2nn1 [Example 51, 2-{7-[(1s,3s)-3-hydroxy-3-methylcyclobutyl]-5,6-dimethyl-7H-pyrrolo[2,3-c]pyridazin-3-yl}-3-methyl-5-(trifluoromethyl)phenol]
8.18 nM | CCN1CCC[C@@H](n2cc(C)c3cc(-c4c(C)cc(OC(F)F)cc4O)nnc32)C1 [Example 71, 5-(difluoromethoxy)-2-{7-[(3R)-1-ethylpiperidin-3-yl]-5-methyl-7H-pyrrolo[2,3-c]pyridazin-3-yl}-3-methylphenol]
26.1 nM | Cc1cc(OC(F)F)cc(O)c1-c1cc2c(C#N)cn([C@H]3C[C@@](C)(O)C3)c2nn1 [Example 74, 3-[4-(difluoromethoxy)-2-hydroxy-6-methylphenyl]-7-[(1s,3s)-3-hydroxy-3-methylcyclobutyl]-7H-pyrrolo[2,3-c]pyridazine-5-carbonitrile]
31.2 nM | Cc1cc(C(F)(F)F)cc(O)c1-c1cc2c(C)cn(C34CCC(O)(C3)C4)c2nn1 [Example 70, 4-{3-[2-hydroxy-6-methyl-4-(trifluoromethyl)phenyl]-5-methyl-7H-pyrrolo[2,3-c]pyridazin-7-yl}bicyclo[2.1.1]hexan-1-ol]
78 nM | Cc1cc(C(F)(F)F)cc(O)c1-c1cc2c(nn1)N([C@H]1CN(C)CC[C@H]1O)CC2 [Example 49, (3S,4R)-3-{3-[2-hydroxy-6-methyl-4-(trifluoromethyl)phenyl]-5,6-dihydro-7H-pyrrolo[2,3-c]pyridazin-7-yl}-1-methylpiperidin-4-ol]
14.4 nM | Cc1cc(C(F)(F)F)cc(O)c1-c1cc2c(C)cn([C@@H]3CCCN(C)C3)c2nn1 [Example 56, 3-methyl-2-{5-methyl-7-[(3R)-1-methylpiperidin-3-yl]-7H-pyrrolo[2,3-c]pyridazin-3-yl}-5-(trifluoromethyl)phenol]
